# Test results taken from ChEMBL document CHEMBL6153155, “Novel Cyclohexyl Amido Acid Antagonists of Lysophosphatidic Acid Type 1 Receptor for the Treatment of Pulmonary Fibrosis” (ACS Med Chem Lett, 2025).
# What was measured:
# [1] = target: Lysophosphatidic acid receptor 1 (Homo sapiens, UniProt Q92633); test: Antagonist activity at human LPA1 expressed in CHO cells incubated for 30 mins by FLIPR-based calcium mobilization assay
# [2] = Lipophilicity, logD of compound at pH 7.4 by chromatographic hydrophobicity index method; assay type: physicochemical; details: buffer
# [3] = Metabolic stability in female C57BL/6J mouse liver microsomes assessed as intrinsic clearance measured per mg of protein at 0.5 uM measured upto 45 mins in presence of NADPH regenerating system by HPLC-MS/MS analysis; assay type: ADME, Microsome; details: read-out: CLH
# [4] = Metabolic stability in human liver microsomes assessed as intrinsic clearance measured per mg of protein at 0.5 uM measured upto 45 mins in presence of NADPH regenerating system by HPLC-MS/MS analysis; assay type: ADME, Microsome; details: read-out: CLH
# [5] = target: BSEP (Homo sapiens, UniProt O95342); test: Inhibition of BSEP in cryopreserved sandwich-cultured human hepatocytes by measuring reduction in TCA biliary clearance using taurocholic acid as substrate at 50 uM relative to control; assay type: cell-based, Hepatocyte; details: cryopreserved sandwich-cultured hepatocytes, probe taurocholic acid
# [6] = target: Lysophosphatidic acid receptor 1 (Mus musculus, UniProt P61793); test: Antagonist activity at mouse LPA1 transfected in human HeLa cells incubated for 30 mins by FLIPR-based calcium mobilization assay; assay type: cell-based
# [7] = Aqueous solubility of the compound at pH 7.4; assay type: physicochemical; details: buffer
# [8] = target: Bile salt export pump (Homo sapiens, UniProt O95342); test: Inhibition of BSEP in cryopreserved sandwich-cultured human hepatocytes by measuring reduction in TCA biliary clearance using taurocholic acid as substrate; assay type: cell-based, Hepatocyte
# [9] = tested on: Mus musculus; test: Inhibition of LPA-stimulated histamine release in male CD1 mouse plasma assessed as effective dose administered as po dose pretreated for 30 mins followed by LPA addition measured after 2 mins by enzyme immunoassay; assay type: functional; details: 32 min
# [10] = Antiproliferative activity against LPA treated human HLF cells preincubated for 1 hr followed by LPA stimulation and measured after 24 hrs by BrdU assay; details: read-out: pIC50 (converted)
# [11] = Clearance in female C57BL/6J mouse at 2 mg/kg, iv measured after 24 hrs by UPLC-MS/MS analysis; assay type: ADME, organism-based; details: in vivo
# [12] = Volume of distribution at steady state in female C57BL/6J mouse at 2 mg/kg, iv measured after 24 hrs by UPLC-MS/MS analysis; assay type: ADME, organism-based; details: in vivo, read-out: Vdss
# [13] = Oral bioavailability in female C57BL/6J mouse at 2 mg/kg, iv measured after 24 hrs by UPLC-MS/MS analysis; assay type: ADME, organism-based; details: in vivo
# [14] = Half life in female C57BL/6J mouse at 2 mg/kg, iv measured after 24 hrs by UPLC-MS/MS analysis; assay type: ADME, organism-based; details: in vivo
# [15] = Total Cmax in female C57BL/6J mouse plasma at 30 mg/kg, po measured after 24 hrs by UPLC-MS/MS analysis; assay type: ADME, organism-based
# [16] = Unbound Cmax in female C57BL/6J mouse plasma at 30 mg/kg, po measured after 24 hrs by UPLC-MS/MS analysis; assay type: ADME, organism-based; details: in vivo
# [17] = Total AUClast in female C57BL/6J mouse plasma at 30 mg/kg, po measured after 24 hrs by UPLC-MS/MS analysis; assay type: ADME, organism-based; details: in vivo
# [18] = Unbound AUClast in female C57BL/6J mouse plasma at 30 mg/kg, po measured after 24 hrs by UPLC-MS/MS analysis; assay type: ADME, organism-based; details: in vivo
# [19] = Tlast in female C57BL/6J mouse plasma at 30 mg/kg, po measured after 24 hrs by UPLC-MS/MS analysis; assay type: ADME, organism-based; details: in vivo
# [20] = Total Cmax in female C57BL/6J mouse lung at 30 mg/kg, po measured after 24 hrs by UPLC-MS/MS analysis; assay type: ADME, organism-based
# [21] = Unbound Cmax in female C57BL/6J mouse lung at 30 mg/kg, po measured after 24 hrs by UPLC-MS/MS analysis; assay type: ADME, organism-based; details: in vivo
# [22] = Total AUClast in female C57BL/6J mouse lung at 30 mg/kg, po measured after 24 hrs by UPLC-MS/MS analysis; assay type: ADME, organism-based; details: in vivo
# [23] = Unbound AUClast in female C57BL/6J mouse lung at 30 mg/kg, po measured after 24 hrs by UPLC-MS/MS analysis; assay type: ADME, organism-based; details: in vivo
# [24] = Tlast in female C57BL/6J mouse lung at 30 mg/kg, po measured after 24 hrs by UPLC-MS/MS analysis; assay type: ADME, organism-based; details: in vivo
# [25] = target: Phosphatidylcholine translocator ABCB4 (Homo sapiens, UniProt P21439); test: Inhibition of MDR3 in human hepatocytes in the presence of TCA incubated for 3 hrs by LC-MS/MS; assay type: cell-based, Hepatocyte
# [26] = target: ATP-binding cassette sub-family C member 2 (Homo sapiens, UniProt Q92887); test: Inhibition of MRP2 (unknown origin) in presence of ATP by membrane vesicular transport assay; assay type: cell membranes, Membrane vesicle
# [27] = target: ATP-binding cassette sub-family C member 3 (Homo sapiens, UniProt O15438); test: Inhibition of MRP3 (unknown origin) in presence of ATP by membrane vesicular transport assay; assay type: cell membranes, Membrane vesicle
# [28] = target: T1, ATP-binding cassette sub-family C member 4 (Homo sapiens, UniProt O15439); test: Inhibition of MRP4 (unknown origin) in presence of ATP by membrane vesicular transport assay; assay type: cell membranes, Membrane vesicle
# T1 sequence (O15439 whole entry): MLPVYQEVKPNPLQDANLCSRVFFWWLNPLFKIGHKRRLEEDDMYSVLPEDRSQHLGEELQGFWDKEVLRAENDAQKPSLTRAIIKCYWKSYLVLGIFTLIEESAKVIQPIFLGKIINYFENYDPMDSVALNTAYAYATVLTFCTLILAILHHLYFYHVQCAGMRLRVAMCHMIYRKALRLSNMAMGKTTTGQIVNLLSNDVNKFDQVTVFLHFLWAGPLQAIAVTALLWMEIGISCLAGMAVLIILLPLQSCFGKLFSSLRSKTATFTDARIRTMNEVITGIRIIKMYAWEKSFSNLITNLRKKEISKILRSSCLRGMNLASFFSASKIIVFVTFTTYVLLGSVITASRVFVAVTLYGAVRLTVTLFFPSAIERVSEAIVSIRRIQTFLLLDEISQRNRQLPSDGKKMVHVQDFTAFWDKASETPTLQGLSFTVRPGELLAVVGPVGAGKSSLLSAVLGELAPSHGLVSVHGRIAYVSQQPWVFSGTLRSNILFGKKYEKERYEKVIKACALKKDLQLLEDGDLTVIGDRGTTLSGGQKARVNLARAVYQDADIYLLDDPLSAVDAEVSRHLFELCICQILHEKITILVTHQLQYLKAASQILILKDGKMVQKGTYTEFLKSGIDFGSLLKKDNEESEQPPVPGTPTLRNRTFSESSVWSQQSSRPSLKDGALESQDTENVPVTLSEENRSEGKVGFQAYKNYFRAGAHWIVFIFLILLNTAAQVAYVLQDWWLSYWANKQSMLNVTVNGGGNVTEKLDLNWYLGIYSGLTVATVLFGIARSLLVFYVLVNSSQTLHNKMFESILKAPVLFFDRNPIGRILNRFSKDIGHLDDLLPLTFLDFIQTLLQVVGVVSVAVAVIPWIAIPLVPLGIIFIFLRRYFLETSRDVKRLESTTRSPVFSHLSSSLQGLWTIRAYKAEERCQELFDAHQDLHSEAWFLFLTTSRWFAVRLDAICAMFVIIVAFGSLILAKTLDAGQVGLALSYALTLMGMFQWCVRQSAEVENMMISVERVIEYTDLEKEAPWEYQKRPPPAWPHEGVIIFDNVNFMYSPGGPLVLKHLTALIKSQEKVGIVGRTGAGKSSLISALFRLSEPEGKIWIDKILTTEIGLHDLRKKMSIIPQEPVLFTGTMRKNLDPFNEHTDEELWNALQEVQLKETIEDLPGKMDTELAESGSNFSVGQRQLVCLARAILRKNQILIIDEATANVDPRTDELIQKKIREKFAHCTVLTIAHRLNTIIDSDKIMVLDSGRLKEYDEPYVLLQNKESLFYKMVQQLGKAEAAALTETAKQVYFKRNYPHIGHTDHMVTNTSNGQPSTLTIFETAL
# [29] = target: T2, Solute carrier organic anion transporter family member 1B1 (Homo sapiens, UniProt Q9Y6L6); test: Inhibition of human OATP1B1 in HEK293 cells; assay type: cell-based
# T2 sequence (Q9Y6L6 whole entry): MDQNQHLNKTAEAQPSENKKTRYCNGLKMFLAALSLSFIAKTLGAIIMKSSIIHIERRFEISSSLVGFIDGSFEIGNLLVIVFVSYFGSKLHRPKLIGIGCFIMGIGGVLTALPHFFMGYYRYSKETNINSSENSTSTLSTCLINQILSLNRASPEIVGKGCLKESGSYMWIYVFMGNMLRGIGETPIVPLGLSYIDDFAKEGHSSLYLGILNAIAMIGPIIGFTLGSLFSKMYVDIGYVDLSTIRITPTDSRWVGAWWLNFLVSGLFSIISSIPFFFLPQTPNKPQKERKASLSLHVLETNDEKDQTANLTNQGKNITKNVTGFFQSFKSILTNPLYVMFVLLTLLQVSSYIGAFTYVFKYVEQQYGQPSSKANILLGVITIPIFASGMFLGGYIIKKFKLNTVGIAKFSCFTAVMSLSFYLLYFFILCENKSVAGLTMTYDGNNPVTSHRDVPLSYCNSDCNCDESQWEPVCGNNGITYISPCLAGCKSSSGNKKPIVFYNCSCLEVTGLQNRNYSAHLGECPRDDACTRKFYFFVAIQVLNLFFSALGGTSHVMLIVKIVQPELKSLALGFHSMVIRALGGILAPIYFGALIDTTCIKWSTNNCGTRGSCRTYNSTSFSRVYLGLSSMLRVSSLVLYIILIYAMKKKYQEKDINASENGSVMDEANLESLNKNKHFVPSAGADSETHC
# [30] = target: T3, Solute carrier organic anion transporter family member 1B3 (Homo sapiens, UniProt Q9NPD5); test: Inhibition of human OATP1B3 in HEK293 cells; assay type: cell-based
# T3 sequence (Q9NPD5 whole entry): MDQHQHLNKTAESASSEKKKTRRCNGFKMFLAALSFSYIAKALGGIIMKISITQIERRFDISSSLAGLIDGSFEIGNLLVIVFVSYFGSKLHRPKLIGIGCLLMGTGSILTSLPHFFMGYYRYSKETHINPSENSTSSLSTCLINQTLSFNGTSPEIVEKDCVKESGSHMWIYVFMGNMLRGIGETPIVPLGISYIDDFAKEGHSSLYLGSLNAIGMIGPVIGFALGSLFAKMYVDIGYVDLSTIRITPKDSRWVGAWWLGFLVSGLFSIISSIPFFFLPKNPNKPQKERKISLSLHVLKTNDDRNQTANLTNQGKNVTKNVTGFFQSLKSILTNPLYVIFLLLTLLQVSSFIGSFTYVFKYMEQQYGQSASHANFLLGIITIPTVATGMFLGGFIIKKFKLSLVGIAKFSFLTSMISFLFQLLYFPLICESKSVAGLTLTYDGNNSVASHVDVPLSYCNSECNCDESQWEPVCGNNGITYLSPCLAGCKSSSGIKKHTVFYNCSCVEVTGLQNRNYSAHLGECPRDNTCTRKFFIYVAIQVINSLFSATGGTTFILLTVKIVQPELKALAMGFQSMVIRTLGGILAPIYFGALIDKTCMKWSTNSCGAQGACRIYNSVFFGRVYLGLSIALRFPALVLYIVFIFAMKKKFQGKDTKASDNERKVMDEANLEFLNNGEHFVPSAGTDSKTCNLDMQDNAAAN
# [31] = tested on: Mus musculus; test: Antifibrotic activity against bleomycin-induced lung fibrosis in male C57Bl/6 mouse model assessed as reduction in ashcroft score at 50 mg/kg, po bid administered from day 7 to 21 relative to control; assay type: functional; design: scale not given: the % may be the effect or the level left; details: time 15 day
# Bile salt export pump, sequence (O95342 whole entry): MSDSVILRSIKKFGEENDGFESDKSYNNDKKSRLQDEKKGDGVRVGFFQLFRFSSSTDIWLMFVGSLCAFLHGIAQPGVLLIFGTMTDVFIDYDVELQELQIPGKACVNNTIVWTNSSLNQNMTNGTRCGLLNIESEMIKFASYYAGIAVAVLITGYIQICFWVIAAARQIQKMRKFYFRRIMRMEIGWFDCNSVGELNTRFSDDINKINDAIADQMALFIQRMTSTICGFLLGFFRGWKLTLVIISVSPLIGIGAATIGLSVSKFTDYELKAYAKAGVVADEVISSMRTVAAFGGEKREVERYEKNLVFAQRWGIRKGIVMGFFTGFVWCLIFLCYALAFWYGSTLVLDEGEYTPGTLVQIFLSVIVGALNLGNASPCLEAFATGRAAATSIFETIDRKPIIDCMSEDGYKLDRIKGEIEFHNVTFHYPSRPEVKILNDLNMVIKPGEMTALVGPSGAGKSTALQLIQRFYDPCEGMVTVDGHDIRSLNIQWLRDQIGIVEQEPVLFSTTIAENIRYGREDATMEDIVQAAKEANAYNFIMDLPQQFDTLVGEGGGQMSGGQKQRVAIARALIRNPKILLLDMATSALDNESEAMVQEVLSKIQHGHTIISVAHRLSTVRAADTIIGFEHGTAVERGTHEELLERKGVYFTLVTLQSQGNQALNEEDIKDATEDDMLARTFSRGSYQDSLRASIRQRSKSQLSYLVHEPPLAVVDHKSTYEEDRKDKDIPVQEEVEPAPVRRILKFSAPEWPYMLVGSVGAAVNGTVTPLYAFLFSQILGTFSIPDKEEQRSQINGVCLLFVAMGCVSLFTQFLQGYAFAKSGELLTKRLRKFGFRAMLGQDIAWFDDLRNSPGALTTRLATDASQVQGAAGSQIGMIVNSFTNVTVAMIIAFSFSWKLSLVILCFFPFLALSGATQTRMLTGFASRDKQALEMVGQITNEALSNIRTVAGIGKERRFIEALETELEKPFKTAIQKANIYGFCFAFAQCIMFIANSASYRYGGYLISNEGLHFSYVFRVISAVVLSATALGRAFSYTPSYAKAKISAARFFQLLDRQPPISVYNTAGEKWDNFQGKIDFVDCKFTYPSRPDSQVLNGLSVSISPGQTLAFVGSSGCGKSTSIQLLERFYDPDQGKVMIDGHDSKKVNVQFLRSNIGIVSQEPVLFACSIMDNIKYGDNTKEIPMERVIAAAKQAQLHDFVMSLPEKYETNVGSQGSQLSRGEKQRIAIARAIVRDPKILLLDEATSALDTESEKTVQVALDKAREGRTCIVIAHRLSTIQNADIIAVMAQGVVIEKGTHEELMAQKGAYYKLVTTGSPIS
# ATP-binding cassette sub-family C member 3, sequence (O15438 whole entry): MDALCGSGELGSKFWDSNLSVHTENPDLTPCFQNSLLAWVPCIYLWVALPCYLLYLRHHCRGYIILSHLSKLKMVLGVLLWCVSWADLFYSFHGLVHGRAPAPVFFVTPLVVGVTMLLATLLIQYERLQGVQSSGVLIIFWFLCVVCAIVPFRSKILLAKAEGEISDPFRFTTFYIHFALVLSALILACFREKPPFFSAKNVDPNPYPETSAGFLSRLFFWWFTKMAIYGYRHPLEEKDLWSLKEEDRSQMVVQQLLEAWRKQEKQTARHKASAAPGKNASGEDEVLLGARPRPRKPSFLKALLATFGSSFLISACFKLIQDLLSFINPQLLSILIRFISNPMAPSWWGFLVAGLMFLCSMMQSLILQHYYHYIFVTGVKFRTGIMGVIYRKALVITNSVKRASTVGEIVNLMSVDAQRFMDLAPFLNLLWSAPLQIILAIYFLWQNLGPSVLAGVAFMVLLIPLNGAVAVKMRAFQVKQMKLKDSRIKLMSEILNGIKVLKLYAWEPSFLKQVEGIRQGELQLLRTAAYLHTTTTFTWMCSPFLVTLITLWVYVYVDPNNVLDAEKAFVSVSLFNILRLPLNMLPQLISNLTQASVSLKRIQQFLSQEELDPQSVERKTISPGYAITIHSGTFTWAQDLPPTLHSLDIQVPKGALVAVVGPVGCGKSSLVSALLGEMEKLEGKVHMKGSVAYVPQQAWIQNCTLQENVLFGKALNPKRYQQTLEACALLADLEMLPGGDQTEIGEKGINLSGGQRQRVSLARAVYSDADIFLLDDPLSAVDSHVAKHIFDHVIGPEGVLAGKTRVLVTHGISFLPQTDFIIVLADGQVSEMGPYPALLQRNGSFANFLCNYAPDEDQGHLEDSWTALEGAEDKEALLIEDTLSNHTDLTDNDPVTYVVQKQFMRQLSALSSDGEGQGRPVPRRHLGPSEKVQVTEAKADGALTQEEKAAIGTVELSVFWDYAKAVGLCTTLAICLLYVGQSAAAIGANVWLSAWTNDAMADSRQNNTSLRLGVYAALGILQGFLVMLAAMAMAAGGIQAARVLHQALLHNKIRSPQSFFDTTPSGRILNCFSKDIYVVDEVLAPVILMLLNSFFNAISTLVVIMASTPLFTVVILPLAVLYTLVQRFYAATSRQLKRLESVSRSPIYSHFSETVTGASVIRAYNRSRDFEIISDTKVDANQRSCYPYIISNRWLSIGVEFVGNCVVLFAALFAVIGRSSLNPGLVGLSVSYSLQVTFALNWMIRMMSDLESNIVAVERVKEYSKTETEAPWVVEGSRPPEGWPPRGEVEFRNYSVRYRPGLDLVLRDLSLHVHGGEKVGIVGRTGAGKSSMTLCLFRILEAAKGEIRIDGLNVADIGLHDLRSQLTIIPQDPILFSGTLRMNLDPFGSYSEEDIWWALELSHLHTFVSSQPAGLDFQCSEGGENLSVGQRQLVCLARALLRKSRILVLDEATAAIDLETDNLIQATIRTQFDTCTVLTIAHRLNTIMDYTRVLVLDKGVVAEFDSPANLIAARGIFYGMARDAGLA
# BSEP, sequence (O95342 whole entry): as the sequence (O95342 whole entry) above
# ATP-binding cassette sub-family C member 2, sequence (Q92887 whole entry): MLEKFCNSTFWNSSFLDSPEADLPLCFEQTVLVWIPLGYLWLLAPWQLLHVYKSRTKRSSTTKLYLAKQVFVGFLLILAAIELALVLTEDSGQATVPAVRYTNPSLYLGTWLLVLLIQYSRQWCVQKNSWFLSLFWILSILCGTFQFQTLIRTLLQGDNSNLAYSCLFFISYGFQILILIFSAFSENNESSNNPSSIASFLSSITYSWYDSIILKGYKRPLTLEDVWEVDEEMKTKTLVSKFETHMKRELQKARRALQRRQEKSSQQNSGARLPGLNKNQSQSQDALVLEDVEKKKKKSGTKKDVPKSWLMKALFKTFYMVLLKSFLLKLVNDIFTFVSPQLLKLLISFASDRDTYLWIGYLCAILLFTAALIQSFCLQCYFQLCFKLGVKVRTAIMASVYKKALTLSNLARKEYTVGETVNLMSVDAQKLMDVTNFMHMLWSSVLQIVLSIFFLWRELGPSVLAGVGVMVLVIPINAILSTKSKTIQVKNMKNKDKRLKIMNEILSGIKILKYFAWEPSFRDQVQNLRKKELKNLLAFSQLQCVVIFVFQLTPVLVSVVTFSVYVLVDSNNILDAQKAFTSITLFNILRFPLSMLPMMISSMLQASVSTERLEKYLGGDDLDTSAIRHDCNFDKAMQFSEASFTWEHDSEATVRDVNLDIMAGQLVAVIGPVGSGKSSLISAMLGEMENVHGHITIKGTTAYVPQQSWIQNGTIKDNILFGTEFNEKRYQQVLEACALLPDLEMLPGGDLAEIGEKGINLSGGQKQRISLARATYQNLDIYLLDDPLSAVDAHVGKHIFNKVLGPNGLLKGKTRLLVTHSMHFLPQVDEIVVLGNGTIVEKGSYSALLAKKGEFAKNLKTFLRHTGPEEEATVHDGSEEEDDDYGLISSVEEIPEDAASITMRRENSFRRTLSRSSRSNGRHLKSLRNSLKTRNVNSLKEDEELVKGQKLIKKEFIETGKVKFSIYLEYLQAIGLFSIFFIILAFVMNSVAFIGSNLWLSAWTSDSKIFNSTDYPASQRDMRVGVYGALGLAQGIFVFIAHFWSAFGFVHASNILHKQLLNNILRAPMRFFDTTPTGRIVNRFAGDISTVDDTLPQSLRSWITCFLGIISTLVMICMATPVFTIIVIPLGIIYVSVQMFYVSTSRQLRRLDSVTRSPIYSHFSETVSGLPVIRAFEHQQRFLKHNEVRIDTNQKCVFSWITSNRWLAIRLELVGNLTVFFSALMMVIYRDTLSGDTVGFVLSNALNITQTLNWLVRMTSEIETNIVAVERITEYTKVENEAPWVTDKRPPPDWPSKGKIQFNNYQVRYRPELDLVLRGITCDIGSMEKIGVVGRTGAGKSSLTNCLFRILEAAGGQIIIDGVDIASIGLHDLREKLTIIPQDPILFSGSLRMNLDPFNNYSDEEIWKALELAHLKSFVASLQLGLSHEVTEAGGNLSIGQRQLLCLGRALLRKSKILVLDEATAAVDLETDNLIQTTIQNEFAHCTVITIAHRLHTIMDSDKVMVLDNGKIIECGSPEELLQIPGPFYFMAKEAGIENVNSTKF
# Lysophosphatidic acid receptor 1 (Homo sapiens, UniProt Q92633), sequence (Q92633 whole entry): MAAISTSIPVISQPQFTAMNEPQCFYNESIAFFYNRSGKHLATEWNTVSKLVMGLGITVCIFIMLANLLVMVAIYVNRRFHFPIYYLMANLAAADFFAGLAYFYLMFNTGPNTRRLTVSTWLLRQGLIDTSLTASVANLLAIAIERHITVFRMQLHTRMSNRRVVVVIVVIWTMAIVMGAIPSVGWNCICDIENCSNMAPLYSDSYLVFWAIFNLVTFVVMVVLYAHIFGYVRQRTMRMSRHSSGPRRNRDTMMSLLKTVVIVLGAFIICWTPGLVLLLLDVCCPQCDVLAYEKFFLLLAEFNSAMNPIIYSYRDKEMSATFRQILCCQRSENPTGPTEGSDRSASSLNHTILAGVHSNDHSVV
# Lysophosphatidic acid receptor 1 (Mus musculus, UniProt P61793), sequence (P61793 whole entry): as the sequence (Q92633 whole entry) above, with I4A, I8S, P22Q, H40Y, I61V, E193D, N194H, I269V, S331N, T335N counted along it
smiles,measurement,setting,value
Cc1nc(-c2nnn(C)c2NC(=O)O[C@H](C)c2ccccc2Cl)ccc1NC(=O)[C@H]1CCCC[C@@H]1C(=O)O,IC50,[1],0.0316 µM
same,chromatographic logD,[2],1.18
same,microsomal CLint at 0.5 µM,[3],2.7 µL/min/mg
same,microsomal CLint at 0.5 µM,[4],0.4 µL/min/mg
same,inhibition at 50 µM,[5],16%
same,IC50,[6],0.0158 µM
same,solubility,[7],318 µM
same,IC50,[8],> 100 µM
same,ED50,[9],0.1 mg/kg
same,IC50,[10],0.0372 µM
same,clearance,[11],17.1 mL/min/kg
same,Vd,[12],2.1 L/kg
same,bioavailability,[13],22%
same,half-life,[14],4.19 h
same,Cmax,[15],3930 ng/mL
same,fCmax,[16],251 ng/mL
same,AUClast,[17],6720 h/ng/mL
same,fAUClast,[18],430 h/ng/mL
same,Tlast,[19],8 h
same,Cmax,[20],2620 ng/mL
same,fCmax,[21],167 ng/mL
same,AUClast,[22],4040 h/ng/mL
same,fAUClast,[23],257 h/ng/mL
same,Tlast,[24],24 h
Cc1noc(-c2ccc(-c3ccc(C4(C(=O)O)CC4)cc3)cc2)c1NC(=O)O[C@H](C)c1ccccc1 [BMS-986020],IC50,[8],2 µM
same,IC50,[25],7.94 µM
same,IC50,[26],50.1 µM
same,IC50,[27],20 µM
same,IC50,[28],6.31 µM
same,IC50,[29],0.158 µM
same,IC50,[30],0.631 µM
COC(=O)c1ccc2c(c1)NC(=O)/C2=C(\Nc1ccc(N(C)C(=O)CN2CCN(C)CC2)cc1)c1ccccc1 [NINTEDANIB],Activity,[31],23%
